Series [1] is described as follows: Cytotoxicity in primary splenocytes, alamarBlue, 72 h. It is filed as cell-based. To be noted: mouse, primary splenocytes from healthy, non-infected mice; 72 h, alamarBlue, uninfected mice; read-out: Splenocytes CC50. As to the method:
(§1) For cytotoxicity tests, several mammalian cell lines were used. […] Primary cell cultures were also used to evaluate cytotoxicity. […] BMDM cells were differentiated for one week with 30 % […] from L929 cell line.
(§2) The in vitro cytotoxicity of the selected nitrofurans was evaluated in HepG2, RAW 264.7 cells, splenocytes and BMDM. In each well of a 96-well microtitre plate, 100 μL containing 10,000 HepG2 or RAW 264.7 cells were incubated for 24h at 37 °C and 5 % CO2 to allow the cells to settle. For primary cells, 100 μL containing 100,000 BMDM or 1,000,000 splenocytes were added to each well. Subsequently, […] of one-half serial dilutions of each compound diluted in DMEM (for HepG2 cells), RPMI medium (for RAW cells), splenocyte medium (for splenocytes) or BMDM medium supplemented with 10 % GM-CSF (for BMDM), were added to each well. The cytotoxic effect of the compounds was measured after 72 h of incubation at 37 °C and 5 % CO2. For this purpose, a 10 % (v/v) of the alamarBlue™ cell viability reagent (Invitrogen, Fisher Scientific International Inc., Pittsburgh, PA, USA) was added, and the reaction was incubated for 4 h at 37 °C and 5 % CO2. Fluorescence was measured using a Varioskan Lux spectrophotometer (ThermoFisher Scientific, Waltham, MA, USA). Positive controls consisting of 0.1 % (v/v) H2O2, and negative controls, consisting of 0.1 % (v/v) DMSO, were also included on each plate.
(§3) All experiments were carried out in triplicate and included at least three technical replicates. […] The SI was calculated from the CC50/EC50 ratio.
(In general: The colour change of resazurin is a common sign of viable cells or microbes.)

Series [2] is described as follows: Cytotoxicity, alamarBlue, 72 h. Format: cell-based, murine. To be noted: mouse, RAW 264.7 cells; 72 h, alamarBlue; read-out: RAW 264.7 cells CC50. How it is done: as §1, §2, §3
Series [3] is described as follows: Cytotoxicity in bone marrow-differentiated macrophages, alamarBlue, 72 h. It is filed as cell-based. To be noted: mouse, bone marrow-differentiated macrophages (BMDM); 72 h, alamarBlue, uninfected mice; read-out: BMDM CC50. As to the method:
as §1, §2, §3

Series [4] addresses T1, L. donovani TryR (Leishmania donovani, UniProt P39050).
T1 construct: endogenous in cells; host or cells: L. donovani-iRFP (LV9) axenic amastigotes, crude cell extract
Put plainly: biochemical. To be noted: for Type of inhibition: Lineweaver-Burk double reciprocal plot, varying T[S]2. As to the method: The activity of L. donovani TryR was measured in the presence of different concentrations of nitrofurans according to the protocol previously described ([Melcón-Fernández et al., 2023]). Briefly, 1 × 10^10 L. donovani-iRFP axenic amastigotes were washed twice in PBS and lysed with a solution containing 1 mM EDTA, 40 mM HEPES, 50 mM Tris HCl pH 7.5, 2 % (v/v) Triton X-100 and Pierce™ Protease Inhibitors Mini Tablets (ThermoFisher Scientific, Waltham, MA, USA). Cell extracts were prepared by mechanical disruption of the cells with 0.5 mm diameter glass beads (Merck, Darmstadt, Germany) and the supernatant obtained by centrifugation at 10,000 rcf for 5 min at 4 °C was used to measure TryR activity in 96-well plates. […] Cell extracts diluted in Tris HCl pH 7.5 (0.43 μg of total protein in 50 μL) were added to launch the reaction. The negative control consisted of 2.5 % DMSO, whereas the blank reaction included the TryR assay solution without T [S]2. […] To determine steady-state conditions, enzymatic activity was measured at 412 nm (ε = 14,150 M^−1 cm^−1) for a period of up to 120 min (with 5 min intervals) at 26 °C in a Varioskan Lux spectrophotometer (ThermoFisher Scientific, Waltham, MA, USA). The experiment was carried out in triplicate and included three technical replicates.

In series [5] the test system is L. donovani-iRFP axenic amastigotes. The series is described as follows: ROS production by axenic amastigotes (DCFH-DA, flow cytometry). To be noted: compound at its axenic EC50, 3 h. Format: cell-based, Leishmania donovani. As to the method:
To assess ROS production in L. donovani-iRFP, axenic amastigotes were treated with nitrofurans at the concentration equivalent to their EC50 calculated in viability experiments. As positive control of oxidative stress induction, cultures were treated with 0.01 % H2O2 (v/v), whereas 0.03 % (v/v) DMSO was added as negative control. After an incubation period of 3 h at 37 °C, cells were harvested by centrifugation at 3500 rcf for 10 min, washed in phosphate-buffered saline (PBS), centrifuged again and resuspended in PBS. Cells were labeled with 5 μM 2′,7′-dichlorofluorescein diacetate (DCFH-DA, MedChemExpress) for 30 min at 37 °C. Then, cells were centrifuged at 3500 rcf for 5 min, washed, and resuspended in PBS. The cell suspension was stored at 4 °C until the analysis by flow cytometry, which was performed in a CytoFLEX SRT (Beckman Coulter). The experiment was carried out in triplicate and included three technical replicates.

The mark [6] stands for this setting: T[S]2 25-150 μM, inhibitor 6.25-100 μM, NADPH 0.20 mM, read-out: Ki.

Like-named read-outs stand apart in the source and are kept apart here.

T1 sequence (P39050 whole entry): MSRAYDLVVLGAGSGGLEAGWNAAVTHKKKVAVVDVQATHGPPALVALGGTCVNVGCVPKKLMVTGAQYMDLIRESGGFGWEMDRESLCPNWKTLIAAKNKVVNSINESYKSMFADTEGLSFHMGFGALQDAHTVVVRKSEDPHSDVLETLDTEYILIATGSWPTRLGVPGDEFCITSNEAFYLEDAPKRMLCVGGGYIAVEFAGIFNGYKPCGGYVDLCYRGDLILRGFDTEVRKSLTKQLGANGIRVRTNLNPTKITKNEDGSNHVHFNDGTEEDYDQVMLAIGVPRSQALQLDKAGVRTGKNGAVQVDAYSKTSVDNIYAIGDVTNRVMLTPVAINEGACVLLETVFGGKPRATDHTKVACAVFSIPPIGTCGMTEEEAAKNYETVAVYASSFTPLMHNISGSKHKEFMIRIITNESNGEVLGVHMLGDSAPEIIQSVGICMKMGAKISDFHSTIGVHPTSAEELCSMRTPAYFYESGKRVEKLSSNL

Turning to `N#Cc1ccc([N+](=O)[O-])o1` [5-nitro-2-furonitrile, 5-Nitro-2-furonitrile], the CC50 at 72 h in series [1] amounted to 8.49 ± 0.52 µM; in series [2], 31.2 ± 5.04 µM; in series [3], 25.8 ± 0.6 µM. Besides, the Type of inhibition entry in series [4] is “Competitive”. Also, the inhibitory constant (Ki) in series [4] (setting [6]) came out at 24.8 ± 1.43 µM. Besides, in series [5], the “Negative ROS (unstressed population)” value stood at 38.2%. Also, the “Positive ROS (stressed population)” value in series [5] came to 61.8%.
For the molecule `O=C1CN(/N=C/c2ccc([N+](=O)[O-])o2)C(=O)N1` [Nitrofurantoin], the CC50 at 72 h in series [1] was 33.2 ± 3.5 µM; in series [2], 37.2 ± 7.05 µM; in series [3] it was 56.3 ± 9.06 µM. Moreover, the affinity in series [4] corresponds to a Ki of 31.2 ± 4.94 µM. Also, in series [4], the Type of inhibition result is “Uncompetitive”. In addition, in series [5], the “Negative ROS (unstressed population)” value is 23.9%. For the same molecule, the “Positive ROS (stressed population)” value in series [5] is listed as 76.1 ± 11.6%; in series [5] (listed as NITROFURANTOIN) it was 76.1%.
In the case of `O=C1NN(c2ccc(F)c(Cl)c2)C(=O)C1=Cc1ccc([N+](=O)[O-])o1` [PYZD-4409, 1-(3-chloro-4-fluorophenyl)-4-[(5-nitro-2-furyl)methylene]-3,5-pyrazolidinedione], the CC50 at 72 h in series [1] was 11.7 ± 0.5 µM; in series [2] it was 51.7 ± 8.03 µM; in series [3], 20.8 ± 6.4 µM. Moreover, in series [4], the Type of inhibition entry was “Competitive”. In series [4] (setting [6]), the Ki stood at 7.63 ± 2.56 µM. The “Negative ROS (unstressed population)” value in series [5] is reported as 36.9%. In series [5], the “Positive ROS (stressed population)” value was found to be 63.1%.
Take `NC(=O)N/N=C/c1ccc([N+](=O)[O-])o1` [Nitrofurazone]: the CC50 at 72 h in series [1] worked out at 38.9 ± 6.32 µM; in series [2], 39.6 ± 7.91 µM; in series [3], 40.6 ± 1.97 µM. Besides, the Type of inhibition result in series [4] was “Uncompetitive”. The Ki in series [4] (setting [6]) is 25.8 ± 4.83 µM. Further, in series [5], the “Negative ROS (unstressed population)” value worked out at 44.1%. The “Positive ROS (stressed population)” value in series [5] came out at 55.9%.

As usually defined, the CC50 is the concentration giving 50% cytotoxicity. The Ki is a dissociation constant, usually derived from enzyme kinetics or from competition with a known ligand.

These data come from article PMC12344264, “Mechanistic, in-silico and in vitro studies with nitrofurans reveal potent leishmanicidal activity and inhibition of trypanothione reductase” (International Journal for Parasitology: Drugs and Drug …, 2025).
